# Reference: US9708336B2, “Metallo-beta-lactamase inhibitors” (priority 2014, dated 2017)
# Where two headings read alike, the source gives them in different places.
# What was measured:
# [1] = biological target: VIM-1 (Pseudomonas aeruginosa (strain ATCC 15692 / DSM 22644 / CIP 104116 / JCM 14847 / LMG 12228 / 1C / PRS 101 / PAO1), UniProt A0A0F7KYQ8); test: Enzyme activity: determination of IC50, fluorescence assay with CCF2-FA substrate (VIM-1); format: biochemical
# [2] = biological target: IMP-1 (Serratia marcescens, UniProt P52699); test: biochemical; format: biochemical; settings: read-out: IMP-1 IC50
# [3] = system: Klebsiella pneumoniae expressing VIM-1 (IHMA599644); test: Antibiotic potentiation activity: synergistic concentration (MITC95) with imipenem, OD600 growth; format: cell-based
# How it was run: (§1)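 Absorbance after a 22–24 h, 35 °C incubation served as the read-out. Wells held bacteria (saline suspension diluted 1:100 into 1.1× CAMHB), imipenem at 4 μg/ml final or optionally 1 μg/ml, and test compound.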
# [4] = system: Serratia marcescens expressing IMP-1 (CL5741); test: as above; format: cell-based
# How it was run: as §1
# [5] = system: Escherichia coli expressing NDM-1 (CLB30016); test: as above; format: cell-based
# How it was run: as §1
# [6] = biological target: NDM-1 (Klebsiella pneumoniae, UniProt C7C422); test: biochemical; format: biochemical; settings: read-out: NDM-1 IC50
# [7] = fluorescence assay with CCF2-FA substrate, read-out: VIM-1 IC50
# [8] = fluorescence assay with CCF2-FA substrate
# [9] = concentration giving 95% inhibition of bacterial growth
# [10] = VIM-1 IC50, VIM-1 enzyme, CCF2-FA fluorescence assay
# [11] = IMP-1 enzyme, CCF2-FA fluorescence assay
# [12] = Klebsiella pneumoniae expressing VIM-1 (IHMA599644), 95% growth inhibition
# [13] = Serratia marcescens expressing IMP-1 (CL5741), 95% growth inhibition
# [14] = Escherichia coli expressing NDM-1 (CLB30016), 95% growth inhibition
# [15] = NDM-1 enzyme, CCF2-FA fluorescence assay
# [16] = VIM-1 enzyme, CCF2-FA substrate, read-out: VIM-1 IC50
# [17] = IMP-1 enzyme, CCF2-FA substrate
# [18] = Klebsiella pneumoniae IHMA599644 (VIM-1), 95% growth inhibition
# [19] = Serratia marcescens CL5741 (IMP-1), 95% growth inhibition
# [20] = (CLB30016, NDM-1), 95% growth inhibition
# [21] = NDM-1 enzyme, CCF2-FA substrate
# [22] = VIM-1 enzyme, CCF2-FA fluorescence assay, read-out: VIM-1 IC50
# [23] = IHMA599644 (VIM-1), 95% inhibition of bacterial growth
# [24] = CL5741 (IMP-1), 95% inhibition of bacterial growth
# [25] = CLB30016 (NDM-1), 95% inhibition of bacterial growth
# Sequence of NDM-1 (C7C422 whole entry, looked up, species assumed): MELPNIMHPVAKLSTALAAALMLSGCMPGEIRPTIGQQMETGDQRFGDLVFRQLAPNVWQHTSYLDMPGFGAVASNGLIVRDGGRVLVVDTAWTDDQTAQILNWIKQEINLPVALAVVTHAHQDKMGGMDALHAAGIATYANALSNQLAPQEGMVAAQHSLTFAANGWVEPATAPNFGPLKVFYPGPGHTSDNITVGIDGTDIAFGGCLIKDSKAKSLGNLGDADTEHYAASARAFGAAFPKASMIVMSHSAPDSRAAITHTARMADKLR
# Sequence of IMP-1 (P52699 whole entry, looked up): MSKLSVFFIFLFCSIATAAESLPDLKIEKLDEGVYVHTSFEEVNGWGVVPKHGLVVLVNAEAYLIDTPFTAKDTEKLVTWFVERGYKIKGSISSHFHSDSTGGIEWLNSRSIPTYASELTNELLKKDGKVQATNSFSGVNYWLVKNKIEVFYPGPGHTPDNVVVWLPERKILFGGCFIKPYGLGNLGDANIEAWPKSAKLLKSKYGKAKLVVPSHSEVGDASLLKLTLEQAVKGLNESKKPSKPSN
SMILES,"IC50 [2, 11]","Klebsiella pneumoniae MITC95 [3, 12]","Serratia marcescens MITC95 [4, 13]","Escherichia coli MITC95 [5, 14]","IC50 [6, 15]","IC50 [1, 16]","IC50 [2, 17]","Klebsiella pneumoniae MITC95 [3, 18]","Serratia marcescens MITC95 [4, 19]","Escherichia coli MITC95 [5, 20]","IC50 [6, 21]",other results
"NS(=O)(=O)c1nccc(NCCc2ccccc2)c1-c1nnn[nH]1 [Example 237, 4-[(2-phenylethyl)amino]-3-(1H-tetrazol-5-yl)pyridine-2-sulfonamide]",–,–,–,–,–,–,–,–,–,–,–,"IC50 [1, 7]: 239 nM; IC50 [2, 8]: 581 nM; Klebsiella pneumoniae expressing VIM-1 (IHMA 599644) MITC95 [3, 9]: >200 µM; Serratia marcescens expressing IMP-1 (CL5741) MITC95 [4, 9]: 125 µM; Escherichia coli expressing NDM-1 (CLB 30016) MITC95 [5, 9]: 18.75 µM; IC50 [6, 8]: 102 nM"
"NS(=O)(=O)c1c(-c2ccc(C3CCNCC3)cc2)ccc(-c2ccc(C3CCNCC3)cc2)c1-c1nn[nH]n1 [Example 430, 3,6-bis[4-(4-piperidyl)phenyl]-2-(2H-tetrazol-5-yl)benzenesulfonamide]",6.38 nM,3.125 µM,0.3906 µM,1.563 µM,52.3 nM,–,–,–,–,–,–,"IC50 [1, 10]: 50.8 nM"
"Nc1nc2nccc(-c3ccc(C(F)(F)F)c(S(N)(=O)=O)c3-c3nnn[nH]3)c2[nH]1 [Example 570, 3-(2-amino-1H-imidazo[4,5-b]pyridin-7-yl)-2-(1H-tetrazol-5-yl)-6-(trifluoromethyl)benzenesulfonamide]",–,–,–,–,–,0.49 nM,4.06 nM,6.25 µM,6.25 µM,3.125 µM,0.33 nM,–
"CN(CCC(=O)O)Cc1ccc(-c2cccc(S(N)(=O)=O)c2-c2nnn[nH]2)cc1 [Example 361, N-methyl-N-{[3′-sulfamoyl-2′-(1H-tetrazol-5-yl)biphenyl-4-yl]methyl}-beta-alanine]",139 nM,25 µM,3.125 µM,2.344 µM,12.9 nM,–,–,–,–,–,–,"IC50 [1, 22]: 271 nM"
"Nc1cccn2c(-c3cccc(S(N)(=O)=O)c3-c3nnn[nH]3)cnc12 [Example 418, 3-(8-aminoimidazo[1,2-a]pyridin-3-yl)-2-(1H-tetrazol-5-yl)benzenesulfonamide]",118 nM,6.25 µM,6.25 µM,0.3906 µM,1.18 nM,–,–,–,–,–,–,"IC50 [1, 22]: 13 nM"
"NS(=O)(=O)c1c(C(F)(F)F)ccc([C@H]2CC[C@H](NC3CCCNCC3)CC2)c1-c1nnn[nH]1 (stereo partly drawn) [Example 695, 3-[4-(azepan-4-ylamino)cyclohexyl]-2-(1H-tetrazol-5-yl)-6-(trifluoromethyl)benzene sulfonamide]",–,–,–,–,–,13.2 nM,42.3 nM,6.25 µM,3.125 µM,0.7813 µM,13.6 nM,–
"NC[C@H]1CC[C@@H](c2ccc(CCC3CCNCC3)c(S(N)(=O)=O)c2-c2nnn[nH]2)CC1 [Example 592, 3-((1s,4s)-4-(aminomethyl)cyclohexyl)-6-(2-(piperidin-4-yl)ethyl)-2-(1H-tetrazol-5-yl)benzenesulfonamide]",–,–,–,–,–,34.8 nM,84.1 nM,12.5 µM,3.125 µM,1.563 µM,8.6 nM,–
"NS(=O)(=O)c1c(C(F)(F)F)ccc(-c2ccc(C3CN(C4CCNC4)C3)cc2)c1-c1nnn[nH]1 (stereo not drawn) [Example 801, 4′-(1-pyrrolidin-3-ylazetidin-3-yl)-2-(1H-tetrazol-5-yl)-4-(trifluoromethyl)biphenyl-3-sulfonamide]",–,–,–,–,–,–,–,–,–,–,–,"IC50 [1, 7]: 9.45 nM; IC50 [2, 8]: 2.8 nM; Klebsiella pneumoniae MITC95 [3, 23]: 100 µM; Serratia marcescens MITC95 [4, 24]: 6.25 µM; Escherichia coli MITC95 [5, 25]: 3.125 µM; IC50 [6, 8]: 2.22 nM"
"NS(=O)(=O)c1c(C(F)(F)F)ccc(N2CCC(C3CCNCC3)CC2)c1-c1nnn[nH]1 [Example 779, 3-[4-(4-piperidyl)-1-piperidyl]-2-(1H-tetrazol-5-yl)-6-(trifluoromethyl) benzenesulfonamide]",–,–,–,–,–,–,–,–,–,–,–,"IC50 [1, 7]: 0.11 nM; IC50 [2, 8]: 6.7 nM; Klebsiella pneumoniae MITC95 [3, 23]: 2.344 µM; Serratia marcescens MITC95 [4, 24]: 0.3906 µM; Escherichia coli MITC95 [5, 25]: 1.172 µM; IC50 [6, 8]: 6.42 nM"
"N=C(N)NC1CCC(CCc2ccc(C(F)(F)F)c(S(N)(=O)=O)c2-c2nn[nH]n2)CC1 (stereo not drawn) [Example 524, 3-(2-(4-Guanidinocyclohexyl)ethyl)-2-(2H-tetrazol-5-yl)-6-(trifluoromethyl)benzenesulfonamide]",–,–,–,–,–,1.05 nM,5.13 nM,12.5 µM,6.25 µM,12.5 µM,24.8 nM,–
"NS(=O)(=O)c1cccc(-c2ccc(CNCCn3nccn3)cc2)c1-c1nnn[nH]1 [Example 383, 2-(1H-tetrazol-5-yl)-4′-({[2-(2H-1,2,3-triazol-2-yl)ethyl]amino}methyl)biphenyl-3-sulfonamide]",51.6 nM,200 µM,1.563 µM,1.563 µM,4.66 nM,–,–,–,–,–,–,"IC50 [1, 22]: 269 nM"
"Cc1ccncc1-c1ccc(C(F)(F)F)c(S(N)(=O)=O)c1-c1nnn[nH]1 [Example 747, 3-(4-methylpyridin-3-yl)-2-(1H-tetrazol-5-yl)-6-(trifluoromethyl)benzenesulfon-amide]",–,–,–,–,–,–,–,–,–,–,–,"IC50 ([1]; VIM-1 IC50, fluorescence assay with CCF2-FA substrate): 0.866 nM; IC50 [2, 8]: 11.2 nM; Klebsiella pneumoniae MITC95 [3, 23]: 12.5 µM; Serratia marcescens MITC95 [4, 24]: 25 µM; Escherichia coli MITC95 [5, 25]: 6.25 µM; IC50 [6, 8]: 5.72 nM"
"CN(C)C1CCN(c2ccc(-c3cccc(S(N)(=O)=O)c3-c3nnn[nH]3)cn2)C1 (stereo not drawn) [Example 627, 3-[6-[3-(dimethylamino)pyrrolidin-1-yl]-3-pyridyl]-2-(1H-tetrazol-5-yl)benzenesulfonamide]",–,–,–,–,–,830 nM,415 nM,100 µM,12.5 µM,1.172 µM,32.9 nM,–
"NS(=O)(=O)c1cccc(-c2ccc(CN[C@H]3COC[C@@H]3O)cc2)c1-c1nnn[nH]1 [Example 365, 4′-({[(3S,4R)-4-hydroxytetrahydrofuran-3-yl]amino}methyl)-2-(1H-tetrazol-5-yl)biphenyl-3-sulfonamide]",52.1 nM,75 µM,2.344 µM,1.563 µM,5.37 nM,–,–,–,–,–,–,"IC50 [1, 22]: 390 nM"
"NS(=O)(=O)c1c(CC2CNC2)ccc(-c2cnc3ccccn23)c1-c1nn[nH]n1 [Example 546, 6-(azetidin-3-ylmethyl)-3-(imidazo[1,2-a]pyridin-3-yl)-2-(2H-tetrazol-5-yl)benzenesulfonamide]",–,–,–,–,–,38.6 nM,178 nM,12.5 µM,12.5 µM,1.563 µM,33.8 nM,–
"NC(=O)C1CN(Cc2ccc(-c3cccc(S(N)(=O)=O)c3-c3nnn[nH]3)cc2)C1 [Example 362, 1-{[3′-sulfamoyl-2′-(1H-tetrazol-5-yl)biphenyl-4-yl]methyl}azetidine-3-carboxamide]",116 nM,75 µM,3.125 µM,0.7813 µM,11.3 nM,–,–,–,–,–,–,"IC50 [1, 10]: 494 nM"
"NS(=O)(=O)c1c(C(F)(F)F)ccc(-c2ccc(C3CCN(C[C@@H]4CCCN4)CC3)cc2)c1-c1nnn[nH]1 [Example 669, 4′-{1-[(2S)-pyrrolidin-2-ylmethyl]piperidin-4-yl}-2-(1H-tetrazol-5-yl)-4-(trifluoromethyl)biphenyl-3-sulfonamide]",–,–,–,–,–,–,0.688 nM,>200 µM,2.344 µM,2.344 µM,3.92 nM,"IC50 ([1]; VIM-1 IC50, VIM-1 enzyme, CCF2-FA substrate): 8.99 nM"
"NC1CC(N2CC(c3ccc(-c4ccc(C(F)(F)F)c(S(N)(=O)=O)c4-c4nnn[nH]4)cc3)C2)C1 (stereo not drawn) [Example 807, 4′-[1-(3-aminocyclobutyl)azetidin-3-yl]-2-(1H-tetrazol-5-yl)-4-(trifluuromethyl)biphenyl-3-sulfonamide]",–,–,–,–,–,–,–,–,–,–,–,"IC50 [1, 7]: 19.9 nM; IC50 [2, 8]: 5.16 nM; Klebsiella pneumoniae MITC95 [3, 23]: 25 µM; Serratia marcescens MITC95 [4, 24]: 6.25 µM; Escherichia coli MITC95 [5, 25]: 1.563 µM; IC50 [6, 8]: 3.97 nM"
